Source: patent publication US4466963A, “Pharmaceutical compositions” (John Wyeth & Brother Limited, priority 1982, dated 1984)

How the values were obtained:
normal mice (tail flick) = assay: tail flick latency (tail immersion in water at 50° C.); format: in vivo
Method: In a further experiment groups of 10 normal mice were given meptazinol (40 mg/kg), ibuprofen (240 mg/kg), a mixture containing these doses of meptazinol and ibuprofen or the requisite volume of vehicle po immediately after measuring the latency to a distinct tail flick (following tail immersion in water at 50° C.). Tail flick latencies were measured again at 30 min intervals post dosing. As the mean pre-dose latencies of mice subjected to the tail immersion procedure were so similar to one another comparisons of the actual latencies at each recording time were made (Student's "t" test).

[1] = test system: mice pretreated with carrageenin (hot-plate response); assay: hot-plate response latency (brass hot-plate, 55° C.) of mice pretreated with carrageenin; format: in vivo; conditions: for Increase in latency (sec) cf. pre-dose control / Latency (sec) pre-dose control: ibuprofen 240, meptazinol 40, combination 240 + 40 mg/kg po; for Latency (sec) pre-dose control: pre-dose baseline of the group, SEM on the line below
Method: For example in one method used to measure the antinociceptive effects of meptazinol, ibuprofen and combinations of the two drugs, groups of 9 mice were given 0.025 ml of 2% carrageenin (in saline) sc into the plantar surface of both hind feet 3.0 hours before treatment. The latency to a distinct response following placement of the mice on a brass hot-plate (55° C.) was measured immediately prior to dosing with vehicle (0.5% hydroxypropyl-methylcellulose in water) or with drug.
The antinociceptive response at each recording time (t) was defined as the reaction time of the mouse at time t minus the reaction time at t=0 (immediately prior to dosing).
The results after dosing with vehicle, ibuprofen (240 mg/kg), meptazinol (40 mg/kg) and a combination of ibuprofen (240 mg/kg)+meptazinol (40 mg/kg) are given in Table 1 below: […]

rats (gastric erosion) = conditions: well known for non-steroidal anti-inflammatory agents; cited from earlier work
[2] = brain concentration of meptazinol after administration of 3H meptazinol alone or with ibuprofen; format: in vivo, mice; conditions: for brain concentration of meptazinol: meptazinol 40 mg/kg po, or meptazinol + ibuprofen 40 + 240
Method: In a further experiment the brain concentration of meptazinol was measured after administration of meptazinol alone or a combination of ibuprofen and meptazinol. Groups of mice were given meptazinol (40 mg/kg) alone or meptazinol+ibuprofen (40+240 mg/kg) po containing 25 μCi/mouse of^3 H meptazinol. Six mice from each group were decapitated at 30 min intervals after dosing. The brain of each animal was removed and after the removal of the cerebellum, pons and medulla the remainder was homogenised in 10 ml ice cold Tris buffer. This was immediately centrifuged at 20,000 rpm for 5 min then a single 1 ml aliquot of the supernatant was taken for counting.

[3] = rats given 3H meptazinol; previous studies; cited from earlier work
[4] = 30 min post dosing, ibuprofen 240, meptazinol 40, combination 40 + 240 mg/kg po, x p < .05 cf meptazinol alone
[5] = 60 min post dosing, ibuprofen 240, meptazinol 40, combination 40 + 240 mg/kg po, xx p < .01 cf meptazinol alone
[6] = 90 min post dosing, ibuprofen 240, meptazinol 40, combination 40 + 240 mg/kg po
[7] = time 0 (pre-dose), ibuprofen 240, meptazinol 40, combination 40 + 240 mg/kg po, SEM on the line below
[8] = 30 min post dosing, *p < .02 cf vehicle, x p < .02 cf meptazinol alone
[9] = 60 min post dosing, *p < .02 cf vehicle
[10] = 90 min post dosing, x p < .02 cf meptazinol alone

Compound | Latency to a distinct tail flick (normal mice (tail flick); [4]) | Latency to a distinct tail flick (normal mice (tail flick); [5]) | Latency to a distinct tail flick (normal mice (tail flick); [6]) | Latency to a distinct tail flick (normal mice (tail flick); [7]) | Increase in latency (sec) cf. pre-dose control [1, 8] | Increase in latency (sec) cf. pre-dose control [1, 9] | Increase in latency (sec) cf. pre-dose control [1, 10] | Latency (sec) pre-dose control [1] | other results
CC(C)Cc1ccc(C(C)C(=O)O)cc1 (stereo not drawn) [Ibuprofen, 2-(4-isobutylphenyl)propionic acid] | 2.75 s | 3.04 s | 3.94 s | 3.43 s | -0.72 s | -1.56 s | -1.30 s | 7.16 s | effect on the tail flick latency (normal mice (tail flick); ibuprofen alone, 240 mg/kg po): did not significantly affect the tail flick latency; antinociceptive response ([1]; ibuprofen 240 mg/kg alone): did not produce any antinociceptive response; gastric damage (rats (gastric erosion)): induce gastric damage
CCC1(c2cccc(O)c2)CCCCN(C)C1 (stereo not drawn) [Meptazinol, m-(3-ethylhexahydro-1-methyl[1H]azepin-3-yl) phenol] | 4.24 s | 4.85 s | 4.80 s | 3.43 s | 4.76 s | 3.00 s | 1.76 s | 6.41 s | Latency to a distinct tail flick (normal mice (tail flick); 30 min post dosing, meptazinol 80 mg/kg po, ***p < .0001 cf vehicle control): 6.95 s; Latency to a distinct tail flick (normal mice (tail flick); 60 min post dosing, meptazinol 80 mg/kg po, **p < .01): 6.75 s; Latency to a distinct tail flick (normal mice (tail flick); 90 min post dosing, meptazinol 80 mg/kg po, ***p < .0001 cf vehicle control): 6.37 s; antinociceptive response (tail flick) (normal mice (tail flick); meptazinol 40 mg/kg alone): did induce a significant antinociceptive response; Latency to a distinct tail flick (normal mice (tail flick); time 0 (pre-dose), meptazinol 80 mg/kg po): 3.54 s; brain concentration of meptazinol ([2]; 30 min post treatment, **p < .01 cf meptazinol alone, (SEM not stated) on the line below): 18.4 Counts × 1000/min/g brain; brain concentration of meptazinol ([2]; 60 min post treatment): 12.0 Counts × 1000/min/g brain; brain concentration of meptazinol ([2]; 90 min post treatment, *p < .05 cf meptazinol alone): 7.4 Counts × 1000/min/g brain; brain concentration of meptazinol ([2]; 120 min post treatment, **p < .01 cf meptazinol alone): 4.7 Counts × 1000/min/g brain; concentration of tritium in the brain cf. same dose of meptazinol with 240 mg/kg ibuprofen ([2]; meptazinol 40 mg/kg, 30, 60 and 90 min post dosing): approximately half; tritium in the brain in the form of meptazinol [3]: virtually all
